Molecular target: Nav 1.7 (Homo sapiens (Human), UniProt Q15858)
Experiment: in-vitro Nav 1.7 PX (IC50)
Type: cell-based
Conditions: not given

Nav 1.7, sequence (Q15858 whole entry): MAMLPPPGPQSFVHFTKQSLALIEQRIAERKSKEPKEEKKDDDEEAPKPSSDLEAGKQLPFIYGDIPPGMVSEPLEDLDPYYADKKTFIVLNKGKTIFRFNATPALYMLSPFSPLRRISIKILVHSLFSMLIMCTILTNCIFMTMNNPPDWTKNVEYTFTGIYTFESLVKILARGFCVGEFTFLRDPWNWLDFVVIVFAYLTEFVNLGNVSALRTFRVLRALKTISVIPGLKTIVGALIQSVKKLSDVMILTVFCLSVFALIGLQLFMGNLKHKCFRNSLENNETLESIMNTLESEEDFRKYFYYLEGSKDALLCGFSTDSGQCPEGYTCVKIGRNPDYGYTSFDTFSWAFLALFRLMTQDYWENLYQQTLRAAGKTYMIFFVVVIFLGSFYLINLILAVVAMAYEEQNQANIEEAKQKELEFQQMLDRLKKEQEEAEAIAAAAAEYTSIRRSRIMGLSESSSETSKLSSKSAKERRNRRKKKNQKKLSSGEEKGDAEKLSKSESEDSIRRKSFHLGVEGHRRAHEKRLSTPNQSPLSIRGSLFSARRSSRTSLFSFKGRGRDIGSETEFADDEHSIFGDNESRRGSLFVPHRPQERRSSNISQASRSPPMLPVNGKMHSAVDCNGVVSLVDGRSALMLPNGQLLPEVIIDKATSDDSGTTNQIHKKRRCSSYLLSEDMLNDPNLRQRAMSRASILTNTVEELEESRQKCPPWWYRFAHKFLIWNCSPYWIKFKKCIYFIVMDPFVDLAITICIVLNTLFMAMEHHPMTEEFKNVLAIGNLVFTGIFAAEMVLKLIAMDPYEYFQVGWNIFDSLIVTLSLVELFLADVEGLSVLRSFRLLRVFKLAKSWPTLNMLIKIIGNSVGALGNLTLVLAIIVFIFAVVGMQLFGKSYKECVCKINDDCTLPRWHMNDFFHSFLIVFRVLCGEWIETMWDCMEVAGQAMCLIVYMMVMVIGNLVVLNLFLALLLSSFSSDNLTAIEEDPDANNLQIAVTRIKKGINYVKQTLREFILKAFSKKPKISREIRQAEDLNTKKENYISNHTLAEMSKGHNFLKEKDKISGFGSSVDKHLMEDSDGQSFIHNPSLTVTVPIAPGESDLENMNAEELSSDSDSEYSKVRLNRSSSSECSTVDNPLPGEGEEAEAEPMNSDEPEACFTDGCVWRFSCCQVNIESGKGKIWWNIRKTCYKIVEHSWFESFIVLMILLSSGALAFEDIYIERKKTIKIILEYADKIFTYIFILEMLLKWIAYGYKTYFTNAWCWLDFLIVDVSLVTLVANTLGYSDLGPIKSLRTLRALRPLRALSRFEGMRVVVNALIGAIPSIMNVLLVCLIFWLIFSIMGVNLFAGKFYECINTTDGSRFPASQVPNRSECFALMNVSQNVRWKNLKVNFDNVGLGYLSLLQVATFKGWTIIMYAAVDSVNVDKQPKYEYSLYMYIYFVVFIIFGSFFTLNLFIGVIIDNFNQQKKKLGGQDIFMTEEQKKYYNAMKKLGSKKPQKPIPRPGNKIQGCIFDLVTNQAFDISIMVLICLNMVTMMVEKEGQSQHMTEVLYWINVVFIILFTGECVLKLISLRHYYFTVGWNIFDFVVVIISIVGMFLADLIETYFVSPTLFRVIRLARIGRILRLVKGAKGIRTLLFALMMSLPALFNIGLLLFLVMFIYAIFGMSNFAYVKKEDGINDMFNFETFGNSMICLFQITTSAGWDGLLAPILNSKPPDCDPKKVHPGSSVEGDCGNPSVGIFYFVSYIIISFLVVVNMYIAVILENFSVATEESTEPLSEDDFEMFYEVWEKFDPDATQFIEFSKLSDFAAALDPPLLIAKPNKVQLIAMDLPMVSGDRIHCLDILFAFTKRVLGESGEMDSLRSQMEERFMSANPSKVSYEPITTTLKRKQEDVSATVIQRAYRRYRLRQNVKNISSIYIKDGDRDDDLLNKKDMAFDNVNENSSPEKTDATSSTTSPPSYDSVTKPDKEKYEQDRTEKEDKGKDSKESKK

Row | Structure (SMILES) | IC50 [nM]
1 | COc1cc(-c2cccc(F)c2)c(Cl)cc1-n1c(=O)ccc2cc(S(=O)(=O)Nc3ccon3)c(F)cc21 (atropisomer, axis not shown; (M)) [Example 357, (M)-1-(2-chloro-3′-fluoro-5-methoxy-[1,1′-biphenyl]-4-yl)-7-fluoro-N-(isoxazol-3-yl)-2-oxo-1,2-dihydroquinoline-6-sulfonamide] | 40
2 | COc1cc(Br)c(F)cc1-n1c(=O)ccc2cc(S(=O)(=O)Nc3cc(OC4CCC4)ncn3)ccc21 (atropisomer, axis not shown; (P)) [Example 1188, (P)-1-(4-bromo-5-fluoro-2-methoxyphenyl)-N-(6-(cyclobutyloxy)-4-pyrimidinyl)-2-oxo-1,2-dihydro-6-quinolinesulfonamide] | 10600

Same assay, conditions: in-vitro Nav 1.7 PX data

Row | IC50 [nM] | Structure (SMILES)
3 | 330 | COc1nc(OC2CCCC2)c(Cl)cc1-n1c(=O)ccc2cc(S(=O)(=O)Nc3ccon3)ccc21 [Example 825, 1-(5-chloro-6-(cyclopentyloxy)-2-methoxy-3-pyridinyl)-N-3-isoxazolyl-2-oxo-1,2-dihydro-6-quinolinesulfonamide]
4 | 38 | COc1cc(C2CCCCC2)c(F)cc1-n1c(=O)ccc2cc(S(=O)(=O)Nc3ccon3)ccc21 [Example 1077, 1-(4-cyclohexyl-5-fluoro-2-methoxyphenyl)-N-3-isoxazolyl-2-oxo-1,2-dihydro-6-quinolinesulfonamide]
5 | 209 | COc1cc(C#CC2CC2)c(F)cc1-n1c(=O)ccc2cc(S(=O)(=O)Nc3ccon3)ccc21 [Example 1130, 1-(4-(cyclopropylethynyl)-5-fluoro-2-methoxyphenyl)-N-3-isoxazolyl-2-oxo-1,2-dihydro-6-quinolinesulfonamide]

Continued, compound first:

Row | Structure (SMILES) | IC50 [nM]
6 | COc1ccc(-c2cccc(F)c2F)cc1-n1c(=O)ccc2cc(S(=O)(=O)Nc3ccon3)ccc21 [Example 848, 1-(2′,3′-difluoro-4-methoxy-3-biphenylyl)-N-3-isoxazolyl-2-oxo-1,2-dihydro-6-quinolinesulfonamide] | 118
7 | COc1cc(-c2ccc(F)c(C#N)c2)ccc1-n1c(=O)ccc2cc(S(=O)(=O)Nc3ccon3)ccc21 [Example 1020, 1-(3′-cyano-4′-fluoro-3-methoxy-4-biphenylyl)-N-3-isoxazolyl-2-oxo-1,2-dihydro-6-quinolinesulfonamide] | 82
8 | COc1cc(-c2cccc(C)c2)ccc1-n1c(=O)ccc2cc(S(=O)(=O)Nc3cccnn3)ccc21 [Example 1120, 1-(3-methoxy-3′-methyl-4-biphenylyl)-2-oxo-N-3-pyridazinyl-1,2-dihydro-6-quinolinesulfonamide] | 108
9 | COc1cc(-c2ccc(F)cc2)c(F)cc1-n1c(=O)ccc2cc(S(=O)(=O)Nc3ccnc(C)n3)ccc21 [Example 773, 1-(2,4′-difluoro-5-methoxy-4-biphenylyl)-N-(2-methyl-4-pyrimidinyl)-2-oxo-1,2-dihydro-6-quinolinesulfonamide] | 274

Same assay, conditions: in-vitro Nav 1.7 PX data (PatchXpress)

Row | IC50 [nM] | Structure (SMILES)
10 | 25 | COc1cc(-c2cccc(C)c2C)ccc1-n1c(=O)ccc2cc(S(=O)(=O)Nc3ccon3)ccc21 [Example 1056, N-3-isoxazolyl-1-(3-methoxy-2′,3′-dimethyl-4-biphenylyl)-2-oxo-1,2-dihydro-6-quinolinesulfonamide]
11 | 5610 | O=c1ccc2cc(S(=O)(=O)Nc3ccon3)ccc2n1-c1cc(F)c(Br)cc1OC1CCNC1 (stereo not drawn) [Example 625, 1-(4-bromo-5-fluoro-2-(PYRROLIDIN-3-YLOXY)phenyl)-N-(isoxazol-3-yl)-2-oxo-1,2-dihydroquinoline-6-sulfonamide]

Same assay, conditions: in-vitro PatchXpress (PX)

Row | IC50 [nM] | Structure (SMILES)
12 | 1230 | COc1cc(Cl)cc(-c2cc(OC)c(-n3c(=O)ccc4cc(S(=O)(=O)Nc5ccon5)ccc43)cc2F)c1 (atropisomer, axis not shown; (M)) [Example 502, (M)-1-(3′-chloro-2-fluoro-5,5′-dimethoxy-4-biphenylyl)-N-3-isoxazolyl-2-oxo-1,2-dihydro-6-quinolinesulfonamide]
